According to patent publication US5122448A, “Assay of anti-Epstein-Barr virus nuclear antigen antibodies with synthetic polypeptides” (Scripps Clinic and Research Foundation, priority 1990, dated 1992):
Where two headings read alike, the source gives them in different places. Residues, ends and D or L forms follow the SMILES beside them.

What was measured:
anti-EBNA antibodies = test: ELISA with polypeptide as solid phase antigen, anti-polypeptide activity of sera (OD405); format: binding, human; details: for OD405 × 10^3 obtained with Patient Antibodies to peptide: serum 1:20
Protocol: (§1) Briefly, microtiter wells (Costar, #3590, Cambridge, MA) were typically coated with individual polypeptides as antigens by adding 100 microliters (ul) of BBS [10 millimoler (mM) sodium borate (pH 8.3), 150 mM NaCl] containing polypeptide at a concentration of 10 micrograms per milliliter (ug/ml). Contact between the wells and antigen-containing solution was maintained for a predetermined time, typically 15 minutes, and at 20 degrees C., to form an antigen-coated solid phase. The solid and liquid phases were separated and the wells were washed three times with BBS.
(§2) Non-specific binding sites were blocked by admixing 200 microliters of 1% bovine serum albumin (BSA) in each well to form another solid/liquid phase admixture, and maintaining that solid/liquid phase admixture for 30 minutes, at 20 degrees C. The phases were separated and excess, unbound BSA was removed by washing three times with BBS.
(§3) The antibodies in human sera that immunoreacted with an adsored polypeptide were detected using an indicating means comprising alkaline phosphatase-conjugated goat anti-human Ig antibody (Tago, Burlington, Calif.). The antibodies in rabbit sera that immunoreacted with an adsorbed polypeptide were detected using an indicating means comprising alkaline phosphatase-conjugated goat anti-rabbit Ig antibody (Kirkegard & Perry Laboratories, Inc., Gaithersburg, MD). In either instance, 100 microliters of the indicating antibody diluted 1:300 in BBS were added per well to form a further solid/liquid phase composition. This solid-liquid phase composition was maintained for a predetermined time, one hour, for the formation of a reaction product between the human antibodies bound to the solid phase and the indicating means, and at 20 degrees C. The phases were separated, and the solid phase was washed 3 times with BBS.
(§4) Alkaline phosphatase-conjugated antibody bound to polypeptide specific antibody was detected by spectrophotometrically measuring the enzymatic hydrolysis of p-nitrophenyl phosphate to p-nitrophenol. Briefly, 100 microliters of p-nitrophenyl phosphate [1 milligram per milliliter in 2 mM MgCl 2, (pH 9.8), 50 mM sodium carbonate] were added to each well. The enzymatic reaction was allowed to proceed 1 hour and then the optical density at 405 nm was determined in a [sequence] spectrophotometer available from Flow Laboratories, Inglewood, Calif.

[1] = tested on: rabbit anti-polypeptide antibody to polypeptide P62; test: Competition ELISA with rabbit anti-polypeptide P62 antibody on solid phase P62; format: binding; details: antibody first incubated with competing polypeptide
Protocol: Anti-peptide antibody binding and inhibition studies were carried out by an enzyme-linked immunosorbent assay (ELISA) as described below.
Contact between the wells and antigen-containing solution was maintained for a predetermined time, typically 15 minutes, and at 20 degrees C., to form an antigen-coated solid phase. The solid and liquid phases were separated and the wells were washed three times with BBS.
Rabbit and human sera (body sample aliquots) were assayed for anti-polypeptide activity by adding 100 microliters of a serum diluted 1:20 in BBS per well to form a solid/liquid phase composition. Contact between the diluted sera and the antigen-coated solid phase was maintained for a predetermined time such as 1 hour, and at 20 degrees C., for an immunoreactant to form. The solid and liquid phases were separated, and the solid phase; i.e., antigen-coated, immunoreactant-containing wells, was then washed three times with BBS.

[2] = tested on: IgM and IgG antibodies to EBNA-1 and cellular proteins of Wi-L2 cells
Protocol: In an alternative procedure, the cellular protein-containing extracts were loaded onto one 13-cm-wide slot of a 7.5 percent acrylamide gel and electrophoresed. The contents of the electrophoresed gel were transferred to nitrocellulose as previously described [Billings et al., Proc. Natl. Acad. Sci. USA, 80:7104-7108 (1983); Rumpold et al., J. Immunol., 138:593-599 (1987); Rhodes et al., J. Exp. Med., 165:1026-1040 (1987)]. Sera were diluted 1:20 or 1:50 in a powdered milk (PM) buffer (3 percent powered milk in 0.05 M borate, 0.15 M NaCl, pH 8.3), and contacted with the strip for 1 hour at room temperature to immunoreact antibodies in the sera with the proteins.
128:593-599 (1987); Rhodes et al., in Herpesvirus, R. Rapp ed., Alan R. Liss, New York; p. […] 154:885-889 (1986); Geltosky et al., J. Clin. Lab Analysis, 1:153-162 (1987); and Rhodes et al., J. Exp. Med., 165:1026-1040 (1987)] and bands were detected by autoradiography as described before.
Synthetic peptide inhibitions were performed by diluting the sera 1:50 in PM and adding free peptide to a final concentration of 400 ug/ml to inhibit IgM antibody and 20 to 50 ug/ml to inhibit IgG antibody. This solution was maintained (incubated) overnight at 4 degrees C. and then used to blot as described above.

[3] = tested on: anti-EBNA antibodies (IgM, IgG); details: 405 nanometer
Description: To differentiate the class of immunoglobulin predominantly responsible for an individual's immune response at a given time during the course of infectious mononucleosis, secondary (indicating) antibodies specific for human IgG or IgM were used in the ELISA as described in the Methods and Materials section (III).
as §1, §2, §3, §4

[4] = tested on: antibodies to EBNA-1 and autoantigens; details: cited from earlier work
[5] = Patient 15, 1 Month after infection
[6] = Patient 15, 1 Week after infection
[7] = Patient 15, 3 Months after infection
[8] = Patient 15, 12 Months after infection
[9] = Patient 15, 21 Months after infection
[10] = Patient three, 1 Month after infection
[11] = Patient three, 1 Week after infection
[12] = Patient three, 3 Months after infection
[13] = Patient three, 21 Months after infection

For `C[C@H](N)C(=O)NCC(=O)N[C@@H](C)C(=O)NCC(=O)NCC(=O)NCC(=O)N[C@@H](C)C(=O)NCC(=O)NCC(=O)N[C@@H](C)C(=O)NCC(=O)N[C@@H](C)C(=O)NCC(=O)NCC(=O)NCC(=O)N[C@@H](C)C(=O)NCC(=O)NCC(=O)N[C@@H](C)C(=O)NCC(=O)O` [Polypeptide P62, H--Ala--Gly--Ala--Gly--Gly--Gly--Ala--Gly--Gly--Ala--Gly--Ala--Gly--Gly--Gly--Ala--Gly--Gly--Ala--Gly--OH] (H-AGAGGGAGGAGAGGGAGGAG-OH), the “Reactivity of sera of EBV non-immune donors to polypeptide” value (anti-EBNA antibodies; 27 EBV non-immune (VCA-) donors) was “None of the sera displayed significant reactivity”, the “Number of anti-EBNA positive sera positive against (bound to) polypeptide” value (anti-EBNA antibodies; 91 ACIF anti-EBNA positive sera, 1:20 dilution) was 91 and the “Number of EBNA positive sera that immunoreacted with polypeptide” value (anti-EBNA antibodies; 91 EBNA positive sera, dilution 1:320) was 83. For the same compound, the “Titer of PSS patients versus normals” value (anti-EBNA antibodies; Progressive Systemic Schlerosis patients) was “relatively higher average titer”, the “Reaction of VCA+ sera with polypeptide” value (anti-EBNA antibodies; clinically normal VCA+ individuals, two dilutions) was “all of the VCA^+ individuals were positive” and the “Reaction of VCA- sera with polypeptide” value (anti-EBNA antibodies; panel of 19 VCA- sera) was “None of the VCA^- sera were found to react positively”. For the same compound, the “OD405 × 10^3 obtained with Patient Antibodies to peptide” value (“OD405 × 10^3 obtained” for short) (anti-EBNA antibodies; MV post-mononucleosis) was 631 OD405 × 10^3, the “OD405 × 10^3 obtained” value (anti-EBNA antibodies; MV pre-mononucleosis) was 77 OD405 × 10^3 and the “OD405 × 10^3 obtained” value (anti-EBNA antibodies; SB post-mononucleosis) was 514 OD405 × 10^3. The “OD405 × 10^3 obtained” value (anti-EBNA antibodies; SB pre-mononucleosis) was 13 OD405 × 10^3, the “OD405 × 10^3 obtained” value (anti-EBNA antibodies; VCA+ Normal 1) was 958 OD405 × 10^3 and the “OD405 × 10^3 obtained” value (anti-EBNA antibodies; VCA+ Normal 2) was 819 OD405 × 10^3. For the same compound, the “Inhibition of binding of anti-polypeptide P62 to polypeptide P62 in the solid phase” value [1] was 98%, the “Inhibition of IgM antibody binding to protein bands” value ([2]; acute EBV-IM sera 1:50, 400 ug/ml peptide) was “inhibited IgM antibody binding to several protein bands” and the “Inhibition of IgG binding to EBNA-1 band at 77 kD” value ([2]; convalescent and normal sera, 50 ug/ml peptide) was “inhibited by the peptide in all cases”. The “Inhibition of IgM reactivities with 82-77 kD and 58 to 62 kD bands” value ([2]; patient four. 12 days after onset of CMV illness, 400 ug/ml peptide) was “inhibited”, the IgG antipeptide activity [3, 5] was 118 Optical density and the IgM antipeptide activity [3, 5] was 225 Optical density. The IgG antipeptide activity [3, 6] was 113 Optical density, the IgM antipeptide activity [3, 6] was 152 Optical density and the IgG antipeptide activity [3, 7] was 118 Optical density. The IgM antipeptide activity [3, 7] was 208 Optical density, the IgG antipeptide activity [3, 8] was 375 Optical density and the IgM antipeptide activity [3, 8] was 249 Optical density. The IgG antipeptide activity [3, 9] was 994 Optical density, the IgM antipeptide activity [3, 9] was 185 Optical density and the IgG antipeptide activity [3, 10] was 37 Optical density. It also gave an IgM antipeptide activity [3, 10] of 87 Optical density, an IgG antipeptide activity [3, 11] of 80 Optical density and an IgM antipeptide activity [3, 11] of 245 Optical density. The IgG antipeptide activity [3, 12] was 60 Optical density, the IgM antipeptide activity [3, 12] was 136 Optical density and the IgG antipeptide activity [3, 13] was 600 Optical density. For the same compound, the IgM antipeptide activity [3, 13] was 145 Optical density, the IgG antipeptide activity ([3]; Patient three, Pre Infection) was 74 Optical density and the IgM antipeptide activity ([3]; Patient three, Pre Infection) was 103 Optical density. The “Immunoreactivity with sera from patients with acute EBV infection” value [4] was “most immunoreactive” and the “Inhibition of IgG antibodies to EBNA-1” value [4] was “can also be inhibited”.
